Source: patent US11104675B2, “PTPN11 inhibitors” (NAVIRE PHARMA, INC., priority 2018, dated 2021)

These compounds were tested against PTPN11-E76K mutant enzyme (Homo sapiens (Human), UniProt Q06124, E76K) (assay: PTPN11 Enzymatic Assay (DiFMUP phosphatase activity)). Conditions: full length PTPN11-E76K, DiFMUP substrate; read-out: IC50, inhibition of PTPN11-E76K mutant enzyme.
Assay type: biochemical

Sequence of PTPN11-E76K mutant enzyme (Q06124 whole entry E76K): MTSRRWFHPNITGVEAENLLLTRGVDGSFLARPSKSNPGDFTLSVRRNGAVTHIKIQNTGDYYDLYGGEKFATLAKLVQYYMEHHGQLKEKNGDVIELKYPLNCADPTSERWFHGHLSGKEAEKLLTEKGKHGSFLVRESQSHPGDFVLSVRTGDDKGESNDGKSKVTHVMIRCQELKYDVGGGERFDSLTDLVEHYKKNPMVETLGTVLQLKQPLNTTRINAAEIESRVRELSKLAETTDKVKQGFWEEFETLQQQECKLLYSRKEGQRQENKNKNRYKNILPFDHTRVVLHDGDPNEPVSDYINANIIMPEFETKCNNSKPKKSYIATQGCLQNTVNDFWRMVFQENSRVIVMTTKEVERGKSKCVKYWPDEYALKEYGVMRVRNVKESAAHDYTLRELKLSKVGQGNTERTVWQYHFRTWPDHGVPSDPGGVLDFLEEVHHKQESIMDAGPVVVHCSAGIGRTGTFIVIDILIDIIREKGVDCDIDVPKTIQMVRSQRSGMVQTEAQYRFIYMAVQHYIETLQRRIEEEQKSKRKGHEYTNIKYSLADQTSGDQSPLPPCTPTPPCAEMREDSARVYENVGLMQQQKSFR

IC50 [nM] | Structure (SMILES)
7500 | Cc1cccc(-n2c(C)nc(N3CCC4(CC3)CO[C@@H](C)[C@H]4N)cc2=O)c1Cl (atropisomer, axis not shown; (Sa)) [Example 13a, 6-((3S, 4S)-4-Amino-3-methyl-2-oxa-8-azaspiro[4.5]decan-8-yl)-3-(Sa)-(2-chloro-3-methylphenyl)-2-methylpyrimidin-4(3H)-one]
148 | Cc1nc(N2CCC3(CC2)CO[C@@H](C)[C@H]3N)cc(=O)n1-c1ccc(Oc2ccccc2)c(Cl)c1Cl (atropisomer, axis not shown; (Ra)) [Example 15b, 6-((3S, 4S)-4-amino-3-methyl-2-oxa-8-azaspiro[4.5]decan-8-yl)-3-(Ra)-(2,3-dichloro-4-phenoxyphenyl)-2-methylpyrimidin-4(3H)-one]
5 | Cc1c(N2CCC3(CC2)CO[C@@H](C)[C@H]3N)nc(C)n(-c2ccc(Oc3cc[nH]n3)c(Cl)c2Cl)c1=O (atropisomer, axis not shown; (Ra)) [Example 20b, 3-(4-((1H-pyrazol-3-yl)oxy)-(Ra)-2,3-dichlorophenyl)-6-((3S, 4S)-4-amino-3-methyl-2-oxa-8-azaspiro[4.5]decan-8-yl)-2,5-dimethylpyrimidin-4(3H)-one]
310 | Cc1nc(N2CCC(C)(CN)CC2)cc(=O)n1-c1cccc(Cl)c1Cl [Example 3, 6-[4-(aminomethyl)-4-methylpiperidin-1-yl]-3-(2,3-dichlorophenyl)-2-methyl-3,4-dihydropyrimidin-4-one]
2580 | Cc1c(N2CCC3(CC2)CO[C@@H](C)[C@H]3N)nc(C)n(-c2cccc(Cl)c2Cl)c1=O (atropisomer, axis not shown; (Sa)) [Example 10a, 6-((3S, 4S)-4-Amino-3-methyl-2-oxa-8-azaspiro[4.5]decan-8-yl)-3-(Sa)-(2,3-dichlorophenyl)-2,5-dimethylpyrimidin-4(3H)-one]
511 | Cc1c(N2CCC3(CC2)CO[C@@H](C)[C@H]3N)nc(C)n(-c2ccc(Oc3ccn(C)n3)c(Cl)c2Cl)c1=O (atropisomer, axis not shown; (Sa)) [Example 18a, 6-((3S, 4S)-4-Amino-3-methyl-2-oxa-8-azaspiro[4.5]decan-8-yl)-3-(Sa)-(2,3-dichloro-4-((1-methyl-1H-pyrazol-3-yl)oxy)phenyl)-2,5-dimethylpyrimidin-4(3H)-one]
1170 | Cc1nc(N2CCC3(CC2)CO[C@@H](C)[C@H]3N)cc(=O)n1-c1cccc(F)c1F [Example 5, 6-[(3S,4S)-4-amino-3-methyl-2-oxa-8-azaspiro[4.5]decan-8-yl]-3-(2,3-difluorophenyl)-2-methyl-3,4-dihydropyrimidin-4-one]
92 | Cc1nc(N2CCC3(CC2)CO[C@@H](C)[C@H]3N)cc(=O)n1-c1ccc(Oc2ccn(C)n2)c(Cl)c1Cl (atropisomer, axis not shown; (Ra)) [Example 16b, 6-((3 S, 4S)-4-Amino-3-methyl-2-oxa-8-azaspiro[4.5]decan-8-yl)-3-(Ra)-(2,3-dichloro-4-((1-methyl-1H-pyrazol-3-yl)oxy)phenyl)-2-methylpyrimidin-4(3H)-one]
12 | CNC(=O)c1ccc(Oc2ccc(-n3c(C)nc(N4CCC5(CC4)CO[C@@H](C)[C@H]5N)c(C)c3=O)c(Cl)c2Cl)cc1 (atropisomer, axis not shown; (Ra)) [Example 19b]
28 | Cc1c(N2CCC3(CC2)CO[C@@H](C)[C@H]3N)nc(C)n(-c2cccc(Cl)c2Cl)c1=O (atropisomer, axis not shown; (Ra)) [Example 10b, 6-((3S, 4S)-4-amino-3-methyl-2-oxa-8-azaspiro[4.5]decan-8-yl)-3-(Ra)-(2,3-dichlorophenyl)-2,5-dimethylpyrimidin-4(3H)-one]
203 | Cc1nc(N2CCC3(CC2)CO[C@@H](C)[C@H]3N)cc(=O)n1-c1ccc(Br)c(Cl)c1Cl [Example 6, 6-((3S,4S)-4-amino-3-methyl-2-oxa-8-azaspiro[4.5]decan-8-yl)-3-(4-bromo-2,3-dichlorophenyl)-2-methylpyrimidin-4(3H)-one]
618 | Cc1nc(N2CCC3(CC2)CO[C@@H](C)[C@H]3N)c(Cl)c(=O)n1-c1ccnc(Cl)c1Cl [Example 17, 6-((3S, 4S)-4-Amino-3-methyl-2-oxa-8-azaspiro[4.5]decan-8-yl)-5-chloro-3-(2,3-dichloropyridin-4-yl)-2-methylpyrimidin-4(3H)-one]
> 10000 | COc1cccc(-n2c(C)nc(N3CCC4(CC3)CO[C@@H](C)[C@H]4N)cc2=O)c1Cl (atropisomer, axis not shown; (Sa)) [Example 7a, 6-((3S,4S)-4-amino-3-methyl-2-oxa-8-azaspiro[4.5]decan-8-yl)-3-(Sa)-(2-chloro-3-methoxyphenyl)-2-methylpyrimidin-4(3H)-one]
9550 | Cc1nc(N2CCC3(CC2)CO[C@@H](C)[C@H]3N)cc(=O)n1-c1ccc(Oc2ccn(C)n2)c(Cl)c1Cl (atropisomer, axis not shown; (Sa)) [Example 16a, 6-((3 S, 4S)-4-Amino-3-methyl-2-oxa-8-azaspiro[4.5]decan-8-yl)-3-(Sa)-(2,3-dichloro-4-((1-methyl-1H-pyrazol-3-yl)oxy)phenyl)-2-methylpyrimidin-4(3H)-one]
> 1000 | Cc1nc(N2CCC3(CC2)CO[C@@H](C)[C@H]3N)cc(=O)n1-c1cccc(C(F)(F)F)c1Cl (atropisomer, axis not shown; (Sa)) [Example 14a, 6-((3S, 4S)-4-Amino-3-methyl-2-oxa-8-azaspiro[4.5]decan-8-yl)-3-(Sa)-(2-chloro-3-(trifluoromethyl)phenyl)-2-methylpyrimidin-4(3H)-one]
186 | Cc1cccc(-n2c(C)nc(N3CCC4(CC3)CO[C@@H](C)[C@H]4N)cc2=O)c1Cl (atropisomer, axis not shown; (Ra)) [Example 13b, 6-((3S, 4S)-4-amino-3-methyl-2-oxa-8-azaspiro[4.5]decan-8-yl)-3-(Ra)-(2-chloro-3-methylphenyl)-2-methylpyrimidin-4(3H)-one]
480 | CCC1(N)CCN(c2cc(=O)n(-c3cccc(Cl)c3Cl)c(C)n2)CC1 [Example 4, 6-(4-amino-4-ethylpiperidin-1-yl)-3-(2,3-dichlorophenyl)-2-methyl-3,4-dihydropyrimidin-4-one]
703 | Cc1nc(N2CCC3(CC2)CO[C@@H](C)[C@H]3N)cc(=O)n1-c1cccc(C(F)(F)F)c1Cl (atropisomer, axis not shown; (Ra)) [Example 14b, 6-((3 S, 4S)-4-Amino-3-methyl-2-oxa-8-azaspiro[4.5]decan-8-yl)-3-(Ra)-(2-chloro-3-(trifluoromethyl)phenyl)-2-methylpyrimidin-4(3H)-one]
20 | Cc1nc(N2CCC3(CC2)CO[C@@H](C)[C@H]3N)c(Br)c(=O)n1-c1cccc(Cl)c1Cl (atropisomer, axis not shown; (Ra)) [Example 12b, 6-((3S, 4S)-4-amino-3-methyl-2-oxa-8-azaspiro[4.5]decan-8-yl)-5-bromo-3-(Ra)-(2,3-dichlorophenyl)-2-methylpyrimidin-4(3H)-one]
153 | COc1cccc(-n2c(C)nc(N3CCC4(CC3)CO[C@@H](C)[C@H]4N)cc2=O)c1Cl (atropisomer, axis not shown; (Ra)) [Example 7b, 6-((3S,4S)-4-amino-3-methyl-2-oxa-8-azaspiro[4.5]decan-8-yl)-3-(Ra)-(2-chloro-3-methoxyphenyl)-2-methylpyrimidin-4(3H)-one]
> 1000 | Cc1nc(N2CCC3(CC2)CO[C@@H](C)[C@H]3N)cc(=O)n1-c1ccc(Oc2ccccc2)c(Cl)c1Cl (atropisomer, axis not shown; (Sa)) [Example 15a, 6-((3S, 4S)-4-Amino-3-methyl-2-oxa-8-azaspiro[4.5]decan-8-yl)-3-(Sa)-(2,3-dichloro-4-phenoxyphenyl)-2-methylpyrimidin-4(3H)-one]
3 | Cc1c(N2CCC3(CC2)CO[C@@H](C)[C@H]3N)nc(C)n(-c2ccc(Oc3ccn(C)n3)c(Cl)c2Cl)c1=O (atropisomer, axis not shown; (Ra)) [Example 18b, 6-((3 S, 4 S)-4-Amino-3-methyl-2-oxa-8-azaspiro[4.5]decan-8-yl)-3-(Ra)-(2,3-dichloro-4-((1-methyl-1H-pyrazol-3-yl)oxy)phenyl)-2,5-dimethylpyrimidin-4(3H)-one]
360 | Cc1nc(N2CCC3(CC2)CO[C@@H](C)[C@H]3N)cc(=O)n1-c1cccc(Cl)c1Br [Example 8, 6-((3S,4S)-4-amino-3-methyl-2-oxa-8-azaspiro[4.5]decan-8-yl)-3-(2-bromo-3-chlorophenyl)-2-methylpyrimidin-4(3H)-one]
3460 | Cc1nc(N2CCC3(CC2)CO[C@@H](C)[C@H]3N)c(Br)c(=O)n1-c1cccc(Cl)c1Cl (atropisomer, axis not shown; (Sa)) [Example 12a, 6-((3S, 4S)-4-Amino-3-methyl-2-oxa-8-azaspiro[4.5]decan-8-yl)-5-bromo-3-(Sa)-(2,3-dichlorophenyl)-2-methylpyrimidin-4(3H)-one]

The compounds below were run on KYSE520 xenografts (assay: In vivo anti-tumor efficacy, KYSE520 xenograft model). Conditions: NSG mice, subcutaneous KYSE520 xenografts, oral gavage once a day for 21 days.
Set-up: species or system NSG (NOD scid gamma) mice

Structure (SMILES) | tumor growth inhibition
Cc1c(N2CCC3(CC2)CO[C@@H](C)[C@H]3N)nc(C)n(-c2cccc(Cl)c2Cl)c1=O (atropisomer, axis not shown; (Ra)) [Example 10b, 6-((3S, 4S)-4-amino-3-methyl-2-oxa-8-azaspiro[4.5]decan-8-yl)-3-(Ra)-(2,3-dichlorophenyl)-2,5-dimethylpyrimidin-4(3H)-one] | dose-dependent tumor growth inhibition
